# Results reported in paper PMC10287555, “Camonsertib in DNA damage response-deficient advanced solid tumors: phase 1 trial results” (Nature Medicine, 2023).
# Entries after “also recorded” stand apart in the source; their conditions may differ.
# Assay: Effect on QT interval
# Set-up: species or system human
# Conditions: in vivo
# Experimental: Tolerability and safety of camonsertib was evaluated by assessment of AEs, TEAEs, serious adverse events (SAEs), DLTs, concomitant medications and procedures, physical examinations, vital sign measurements, clinical safety laboratory evaluations (hematology, chemistry and urinalysis), ECOG performance status scores and electrocardiograms.
smiles,measurement,value
C[C@@H]1COCCN1c1cc([C@]2(O)C[C@H]3CC[C@@H](C2)O3)c2cnn(-c3cc[nH]n3)c2n1 [camonsertib],Effect on QT interval (ΔQTcF),No effect on QT interval was observed; also recorded: do not affect
